Measured values published in US9353083B2, “Oxazetidine derivatives, process for preparing them and use in human medicine and in cosmetics” (GALDERMA RESEARCH & DEVELOPMENT, priority 2011, dated 2016).

How the values were obtained:
Assay type in all cases: cell-based
[1] = molecular target: hERG potassium channel (Homo sapiens (Human), UniProt Q12809); assay: hERG channel test: effect on amplitude of IKr in hERG transfected cells; conditions: for effect on the amplitude of IKr encoded by hERG (change in percentage relative to the control): hERG transfected human cells; for effect observed on the amplitude of IKr (in words): 1, 3 and 10 μM; for IC50: estimated from 1, 3 and 10 μM, read-out: Estimated IC50 for hERG channel blockade; for concentration from which the decrease of the amplitude of IKr starts: tested at 1, 3 and 10 μM; for lengthening the QT time (conclusion from hERG test): under the experimental conditions; for decrease of the amplitude of IKr: with 10 μM
Chain of hERG potassium channel (Q12809 whole entry): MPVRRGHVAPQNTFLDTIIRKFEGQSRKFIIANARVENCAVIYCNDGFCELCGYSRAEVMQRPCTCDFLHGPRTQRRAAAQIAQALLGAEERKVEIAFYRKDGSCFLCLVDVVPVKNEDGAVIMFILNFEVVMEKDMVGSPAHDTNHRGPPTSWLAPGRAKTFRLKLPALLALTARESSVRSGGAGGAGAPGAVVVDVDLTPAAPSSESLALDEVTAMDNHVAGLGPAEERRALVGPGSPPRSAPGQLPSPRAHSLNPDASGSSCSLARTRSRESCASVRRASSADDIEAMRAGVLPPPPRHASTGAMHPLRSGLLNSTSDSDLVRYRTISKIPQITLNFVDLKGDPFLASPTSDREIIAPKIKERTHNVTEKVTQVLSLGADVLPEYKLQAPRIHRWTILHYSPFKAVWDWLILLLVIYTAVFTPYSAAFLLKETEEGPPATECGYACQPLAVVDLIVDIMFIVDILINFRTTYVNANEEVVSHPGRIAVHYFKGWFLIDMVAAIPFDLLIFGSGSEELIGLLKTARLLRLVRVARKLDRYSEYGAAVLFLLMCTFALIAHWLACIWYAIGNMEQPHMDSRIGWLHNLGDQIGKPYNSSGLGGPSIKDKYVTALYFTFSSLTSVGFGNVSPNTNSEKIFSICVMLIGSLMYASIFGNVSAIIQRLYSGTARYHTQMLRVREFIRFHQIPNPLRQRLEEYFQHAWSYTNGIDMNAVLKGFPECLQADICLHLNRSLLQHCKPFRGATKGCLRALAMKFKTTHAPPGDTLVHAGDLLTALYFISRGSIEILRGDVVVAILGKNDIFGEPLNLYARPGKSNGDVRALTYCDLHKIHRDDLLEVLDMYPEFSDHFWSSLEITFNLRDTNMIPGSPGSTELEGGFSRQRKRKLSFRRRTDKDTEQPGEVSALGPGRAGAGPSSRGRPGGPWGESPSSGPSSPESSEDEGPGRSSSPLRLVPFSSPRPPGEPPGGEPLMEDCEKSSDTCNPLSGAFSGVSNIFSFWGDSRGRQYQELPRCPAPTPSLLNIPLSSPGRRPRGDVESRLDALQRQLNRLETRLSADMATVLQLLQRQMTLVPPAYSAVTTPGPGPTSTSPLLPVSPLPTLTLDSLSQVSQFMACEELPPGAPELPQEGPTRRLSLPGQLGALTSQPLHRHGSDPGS
Description: The object of the study was to track down the inhibition profile of seven selective compounds from human cell lines stably transfected with the gene for expressing the IKr protein of the hERG potassium channel. Several MC1R agonist compounds and especially the compounds of interest in the context of the invention were evaluated. The toxicity evaluation was performed using three increasing concentrations (1, 3 and 10 μM) of 2 hERG transfected cells (no reference compound used) of the following compounds: • Compound 1: N-[(R)-2-[3-(4-hydroxybutoxy)-3-o-tolylazetidin-1-yl]-1-(4-methoxybenzyl)-2-oxoethyl]-3-(1H-imidazol-4-yl)propionamide • Compound 2: (S)-N-[(R)-2-(3-butoxy-3-o-tolylazetidin-1-yl)-1-(4-methoxybenzyl)-2-oxoethyl]-2-hydroxy-3-(1H-imidazol-4-yl)propionamide • Compound 3: 3-(1H-imidazol-4-yl)-N-{(R)-1-(4-methoxybenzyl)-2-oxo-2-[3-o-tolyl-3-(4,4,4-trifluorobutoxy)azetidin-1-yl]ethyl}propionamide • Compound 4: N-[(R)-2-(3-but-2-ynyloxy-3-o-tolylazetidin-1-yl)-1-(4-methoxybenzyl)-2-oxoethyl]-3-(5-methyl-1H-imidazol-4-yl)propionamide • Compound 5: N-[(R)-2-(3-cyclobutylmethoxy-3-o-tolylazetidin-1-yl)-1-(4-methoxybenzyl)-2-oxoethyl]-3-(5-methyl-1H-imidazol-4-yl)propionamide • Compound 6: N-[(R)-2-(3-cyclopropylmethoxy-3-o-tolylazetidin-1-yl)-1-(4-methoxybenzyl)-2-oxoethyl]-3-(5-methyl-1H-imidazol-4-yl)propionamide • Compound 7: N-[(R)-2-(3-butoxy-3-o-tolylazetidin-1-yl)-1-(4-methoxybenzyl)-2-oxoethyl]-3-guanidinopropionamide; bis(trifluoroacetic acid) salt
The effect on the amplitude of IKr encoded by hERG (as the changes in percentages relative to the control) are summarized per compound and per concentration in Table 1 below.

[2] = molecular target: hMC1R (Homo sapiens (Human), UniProt Q01726); assay: Transactivation test melanocortin receptors (CRE-Luc, HEK293), hMC1R; conditions: for EC50: HEK293, pCRE-Luc, agonist mode, read-out: EC50 hMC1-R
Chain of hMC1R (Q01726 whole entry): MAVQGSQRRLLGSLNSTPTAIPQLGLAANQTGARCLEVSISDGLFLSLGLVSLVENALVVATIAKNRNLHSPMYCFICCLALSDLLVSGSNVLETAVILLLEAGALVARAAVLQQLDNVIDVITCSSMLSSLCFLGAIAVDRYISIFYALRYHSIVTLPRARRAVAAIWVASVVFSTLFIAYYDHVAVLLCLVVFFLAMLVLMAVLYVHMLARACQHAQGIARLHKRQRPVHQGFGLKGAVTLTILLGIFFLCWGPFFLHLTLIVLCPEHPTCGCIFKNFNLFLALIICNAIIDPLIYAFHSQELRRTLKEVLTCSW
Description: (§1) The aim of this example is to show the Melanocortine receptor selectivity of compound 1 and compound 6 of the present invention: • Cells: The lines HEK293 are transfected with vectors pCRE-Luc and hMC1R or hMC4R. The cells are cultured at 37° C. and 5% CO2, in DMEM medium supplemented with 10% foetal calf serum. • Test principle: In the presence of an activator (agonist), the melanocortin receptor will activate the cAMP pathway, which, via the vector CRE-Luc, will lead to the synthesis of luciferase. After addition of a lysis buffer containing a luminescent luciferase substrate, the luminescence proportional to the degree of activation or inhibition of receptor may be measured. • Testing the products: The products are dissolved at 10 mM in DMSO. They are tested as a response dose at 0.1% of DMSO final. The range comprising 10 points and a zero starts at 10 μM with four-fold dilutions. To test agonists, the products are tested alone. To determine the antagonist behaviour, the products of interest are tested in the presence of 1 nM NDP-MSH (reference agonist). The cells are inoculated at a rate of 5000 cells per well (384-well plate) in serum-free DMEM medium and incubated overnight at 37° C. and 5% CO2. • The products and the reference ligand (NDP-MSH) are added the following day and the plates are reincubated for 6 hours at 37° C. and 5% CO2. After adding the lysis buffer containing luciferin, the plates are read in a Top-Count machine. The results are normalized as percentage of activity using the 100% (cells+NDP-MSH at 10 nM) and 0% (cells alone) controls. An EC50 is calculated for each product using the XLFit software.

[3] = molecular target: hMC4R (Homo sapiens (Human), UniProt P32245); assay: Transactivation test melanocortin receptors (CRE-Luc, HEK293), hMC4R; conditions: HEK293, pCRE-Luc, agonist mode; read-out: EC50 hMC4-R
Chain of hMC4R (P32245 whole entry): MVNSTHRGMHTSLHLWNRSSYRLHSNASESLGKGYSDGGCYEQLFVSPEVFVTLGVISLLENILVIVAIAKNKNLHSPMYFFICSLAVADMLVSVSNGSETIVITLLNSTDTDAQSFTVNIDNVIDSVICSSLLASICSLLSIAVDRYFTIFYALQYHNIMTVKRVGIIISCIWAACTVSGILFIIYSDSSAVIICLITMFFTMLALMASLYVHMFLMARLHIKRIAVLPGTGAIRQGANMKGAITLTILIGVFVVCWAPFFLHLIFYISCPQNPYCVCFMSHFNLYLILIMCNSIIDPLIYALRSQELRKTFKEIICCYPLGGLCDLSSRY
Description: as §1, with “The cells are inoculated at a rate of 5000 cells per well (384-well plate) in serum-free DMEM medium and incubated overnight at 37° C. and 5% CO2. • The products and the reference ligand (NDP-MSH) are added the following day and the plates are reincubated for 6 hours at 37° C. and 5% CO2.” left out, “The results are normalized as percentage of activity using the 100% (cells+NDP-MSH at 10 nM) and 0% (cells alone) controls.” left out

Compound | effect on the amplitude of IKr encoded by hERG (change in percentage relative to the control) ([1]; 1 μM) | effect on the amplitude of IKr encoded by hERG (change in percentage relative to the control) ([1]; 3 μM) [%] | effect on the amplitude of IKr encoded by hERG (change in percentage relative to the control) ([1]; 10 μM) [%] | effect observed on the amplitude of IKr (in words) [1] | IC50 [1] [µM] | concentration from which the decrease of the amplitude of IKr starts [1] [nM] | lengthening the QT time (conclusion from hERG test) [1] | decrease of the amplitude of IKr [1] [%] | melanocortin receptor selectivity (hMC1R versus hMC4R) [2] | EC50 [2] [µM] | cardiotoxic alert on the hERG channel test [1] | EC50 [3] [µM]
COc1ccc(C[C@@H](NC(=O)CCc2nc[nH]c2C)C(=O)N2CC(OCC3CCC3)(c3ccccc3C)C2)cc1 [Compound 5, N-[(R)-2-(3-cyclobutylmethoxy-3-o-tolylazetidin-1-yl)-1-(4-methoxybenzyl)-2-oxoethyl]-3-(5-methyl-1H-imidazol-4-yl)propionamide] | −17.0 ± 4.0% | −49.5 ± 16.5 | −76.5 ± 17.5 | dose effect observed | 3 | 1000 | more substantially | 76.5 | – | – | – | –
COc1ccc(C[C@@H](NC(=O)CCc2c[nH]cn2)C(=O)N2CC(OCCCCO)(c3ccccc3C)C2)cc1 [Compound 1, N-[(R)-2-[3-(4-hydroxybutoxy)-3-o-tolylazetidin-1-yl]-1-(4-methoxybenzyl)-2-oxoethyl]-3-(1H-imidazol-4-yl)propionamide] | −1.5 ± 2.5% | −3.0 ± 1.0 | −7.5 ± 3.5 | no effect observed | – | – | did not exhibit this characteristic | – | hMC1R highly selective | 0.25 | do not present any cardiotoxic alert | 8
CCCCOC1(c2ccccc2C)CN(C(=O)[C@@H](Cc2ccc(OC)cc2)NC(=O)CCNC(=N)N)C1 [Compound 7, N-[(R)-2-(3-butoxy-3-o-tolylazetidin-1-yl)-1-(4-methoxybenzyl)-2-oxoethyl]-3-guanidinopropionamide] | −19.5 ± 4.5% | −29.5 ± 9.5 | −33.0 ± 12.0 | slight dose effect observed | > 10 | 1000 | slightly | 33 | – | – | – | –
CCCCOC1(c2ccccc2C)CN(C(=O)[C@@H](Cc2ccc(OC)cc2)NC(=O)[C@@H](O)Cc2c[nH]cn2)C1 [Compound 2, (S)-N-[(R)-2-(3-butoxy-3-o-tolylazetidin-1-yl)-1-(4-methoxybenzyl)-2-oxoethyl]-2-hydroxy-3-(1H-imidazol-4-yl)propionamide] | +1.0 ± 1.0% | −5.0 ± 5.0 | −51.5 ± 6.5 | modified but only at the highest concentration | 10 | – | more substantially | – | – | – | – | –
COc1ccc(C[C@@H](NC(=O)CCc2nc[nH]c2C)C(=O)N2CC(OCC3CC3)(c3ccccc3C)C2)cc1 [Compound 6, N-[(R)-2-(3-cyclopropylmethoxy-3-o-tolylazetidin-1-yl)-1-(4-methoxybenzyl)-2-oxoethyl]-3-(5-methyl-1H-imidazol-4-yl)propionamide] | −5.0 ± 3.0% | −9.5 ± 3.5 | −16.0 ± 7.0 | no effect observed | – | – | did not exhibit this characteristic | – | hMC1R highly selective | 0.07 | do not present any cardiotoxic alert | 4.5
CC#CCOC1(c2ccccc2C)CN(C(=O)[C@@H](Cc2ccc(OC)cc2)NC(=O)CCc2nc[nH]c2C)C1 [Compound 4, N-[(R)-2-(3-but-2-ynyloxy-3-o-tolylazetidin-1-yl)-1-(4-methoxybenzyl)-2-oxoethyl]-3-(5-methyl-1H-imidazol-4-yl)propionamide] | −20.5 ± 9.5% | −22.0 ± 10.0 | −42.5 ± 2.5 | dose effect observed | > 10 | 3000 | more substantially | 42.5 | – | – | – | –
COc1ccc(C[C@@H](NC(=O)CCc2c[nH]cn2)C(=O)N2CC(OCCCC(F)(F)F)(c3ccccc3C)C2)cc1 [Compound 3, 3-(1H-imidazol-4-yl)-N-{(R)-1-(4-methoxybenzyl)-2-oxo-2-[3-o-tolyl-3-(4,4,4-trifluorobutoxy)azetidin-1-yl]ethyl}propionamide] | −16.0 ± 3.0% | −42.5 ± 5.5 | −86.5 ± 3.5 | dose effect observed | > 3 | 1000 | more substantially | 86.5 | – | – | – | –
